What was measured:
Histone deacetylase 8 = target: T1, Histone deacetylase 8 (Homo sapiens, UniProt Q9BY41); test: Inhibition of human HDAC8 expressed in Escherichia coli using Boc-Lys (acetyl)-AMC as substrate treated for 5 mins before substrate addition measured after 30 mins by fluorescence assay
T1 sequence (Q9BY41 whole entry): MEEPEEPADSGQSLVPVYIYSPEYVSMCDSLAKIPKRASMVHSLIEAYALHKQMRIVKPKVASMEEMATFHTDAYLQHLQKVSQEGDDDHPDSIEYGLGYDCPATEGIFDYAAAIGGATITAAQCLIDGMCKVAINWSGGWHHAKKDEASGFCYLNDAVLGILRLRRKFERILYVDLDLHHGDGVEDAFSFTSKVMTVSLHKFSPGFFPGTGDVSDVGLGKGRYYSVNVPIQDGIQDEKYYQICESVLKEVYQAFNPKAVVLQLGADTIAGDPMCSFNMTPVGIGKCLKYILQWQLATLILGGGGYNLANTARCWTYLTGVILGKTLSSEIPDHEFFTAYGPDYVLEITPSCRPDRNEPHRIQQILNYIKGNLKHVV

MCF7 = test: Antiproliferative activity against human MCF7 cells after 48 hrs by MTT assay; type: functional, cell-based; details: MCF7, 48 h
PC-3 = test: cells; details: Homo sapiens, PC-3, 48 h
Histone deacetylase 1 = Histone deacetylase 1 (Homo sapiens, UniProt Q13547); test: Inhibition of human HDAC1 expressed in Escherichia coli using fluorogenic substrate treated for 5 mins before substrate addition measured after 30 mins by fluorescence assay
Sequence of Histone deacetylase 1 (Q13547 whole entry): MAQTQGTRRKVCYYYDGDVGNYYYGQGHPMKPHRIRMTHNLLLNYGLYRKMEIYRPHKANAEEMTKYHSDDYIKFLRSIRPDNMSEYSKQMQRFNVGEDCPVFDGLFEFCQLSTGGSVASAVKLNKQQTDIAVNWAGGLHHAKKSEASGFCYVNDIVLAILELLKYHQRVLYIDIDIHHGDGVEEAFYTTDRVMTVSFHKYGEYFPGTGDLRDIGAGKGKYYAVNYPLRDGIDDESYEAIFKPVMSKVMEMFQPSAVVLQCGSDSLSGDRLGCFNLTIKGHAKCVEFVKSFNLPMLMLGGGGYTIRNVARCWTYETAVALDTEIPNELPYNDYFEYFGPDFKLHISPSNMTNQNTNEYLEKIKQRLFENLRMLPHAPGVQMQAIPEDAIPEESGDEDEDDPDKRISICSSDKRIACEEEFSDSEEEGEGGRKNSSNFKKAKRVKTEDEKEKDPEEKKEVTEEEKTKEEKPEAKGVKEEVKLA

MDA-MB-231 = test: Antiproliferative activity against human MDA-MB-231 cells after 48 hrs by MTT assay; type: functional, cell-based; details: MDA-MB-231, 48 h

Row | Compound | IC50 (Histone deacetylase 8) | IC50 (MCF7) | IC50 (PC-3) | IC50 (Histone deacetylase 1) | IC50 (MDA-MB-231)
1 | CC(C)(C)OC(=O)NCCCC(=O)N1CC2(C[C@H]1C(=O)NCCCCCC(=O)NO)SCCS2 | 960 nM | – | – | – | –
2 | O=C(CCCCCNC(=O)[C@@H]1CC2(CN1)SCCS2)NO | 2590 nM | – | – | – | –
3 | NCCC(=O)N1CC2(C[C@H]1C(=O)NCCCCCC(=O)NO)SCCS2 | 1930 nM | – | – | – | –
4 | CC(C)C[C@H](NC(=O)OC(C)(C)C)C(=O)N1CC2(C[C@H]1C(=O)NCCCCCC(=O)NO)SCCS2 | – | 3.51 µM | 4.3 µM | 680 nM | 3.5 µM
5 | CC(C)(C)OC(=O)N[C@@H](Cc1ccccc1)C(=O)N1CC2(C[C@H]1C(=O)NCCCCCC(=O)NO)SCCS2 | 35 nM | 7.78 µM | 12.7 µM | 980 nM | 2.79 µM
6 | N[C@@H](Cc1ccccc1)C(=O)N1CC2(C[C@H]1C(=O)NCCCCCC(=O)NO)SCCS2 | 840 nM | – | – | – | –
7 | CC(C)(C)OC(=O)N[C@@H](Cc1ccc(O)cc1)C(=O)N1CC2(C[C@H]1C(=O)NCCCCCC(=O)NO)SCCS2 | 21 nM | 21.6 µM | 24.7 µM | 450 nM | 30.5 µM
8 | N[C@@H](Cc1ccc(O)cc1)C(=O)N1CC2(C[C@H]1C(=O)NCCCCCC(=O)NO)SCCS2 | 490 nM | > 100 µM | > 100 µM | 450 nM | > 100 µM
9 | CC(C)(C)OC(=O)N[C@@H](Cc1c[nH]c2ccccc12)C(=O)N1CC2(C[C@H]1C(=O)NCCCCCC(=O)NO)SCCS2 | 140 nM | 9.16 µM | 13.7 µM | 750 nM | 5.83 µM
10 | N[C@@H](Cc1c[nH]c2ccccc12)C(=O)N1CC2(C[C@H]1C(=O)NCCCCCC(=O)NO)SCCS2 | 690 nM | – | – | – | –
11 | CC(C)(C)OC(=O)NCCCC[C@H](NC(=O)OC(C)(C)C)C(=O)N1CC2(C[C@H]1C(=O)NCCCCCC(=O)NO)SCCS2 | 350 nM | 42.5 µM | 34.6 µM | 980 nM | 12.8 µM
12 | NCCCC[C@H](N)C(=O)N1CC2(C[C@H]1C(=O)NCCCCCC(=O)NO)SCCS2 | 4770 nM | – | – | – | –
13 | O=C(CCCCCCC(=O)Nc1ccccc1)NO [VORINOSTAT] | – | – | 1.98 µM | – | –

Source: ChEMBL document CHEMBL1833905, “Design, synthesis and primary activity assay of tripeptidomimetics as histone deacetylase inhibitors with linear linker and branched cap group” (Eur J Med Chem, 2011)
